US10662229B2, “Spider venom peptides and methods of use for modulating sodium channels” (priority 2016, dated 2020)
pIC50: −log10 of the molar value. Where a SMILES comes first, the peptide text is derived from it. Bridges are numbered along the chain shown (N, C = ends).

What was measured:
Format in all cases: cell-based
[1] = biological target: T1, hNav1.6 (Homo sapiens, UniProt Q9UQD0); assay: FLIPR membrane potential assay, hNav1.6; conditions: for Selectivity for Nav1.7, Nav subtype 1.6: membrane potential assay
T1 construct: host or cells: HEK293
Description: (§1) HEK293 cells stably expressing hNav1.1, hNav1.2, hNav1.3, hNav1.4, hNav1.5, hNav1.6, hNav1.7 and […] (SB Drug Discovery, Glasgow, UK) were cultured in minimum essential media (MEM) containing 10% v/v FBS supplemented with L-glutamine (2 mM) and selection antibiotics G-418 (0.5 mg/mL), blasticidin (2-4 μg/mL) and zeocin (0.5 mg/mL) as recommended by the manufacturer. CHO cells stably expressing hNav1.8 in a tetracycline-inducible system (Chantest, OH, USA) were cultured in Ham's F-12 containing 10% v/v FBS and selection antibiotics as recommended by the manufacturer. To induce hNav1.8 expression, cells were cultured in the presence of tetracycline (1 μg/mL) for 24 h at 27° C. Cells were grown in a humidified 5% CO2 incubator at 37° C., grown to 70-80% confluence, and passaged every 3-4 days using TrypLE Express (Invitrogen).
(§2) Cells were plated 48 h before the assay on 384-well black walled imaging plates at a density of 10,000 to 15,000 cells per well and were loaded with red membrane potential dye for 30 min at 37° C. (Molecular Devices, CA, USA). One vial of bulk red membrane potential dye was reconstituted to a 10× stock solution with PSS and stored at −20° C. and diluted to 1× solution with PSS on the day of the assay. […] Changes in membrane potential were assessed using the FLIPR^TETRA (excitation 515 to 545 nm, emission 565 to 625 nm) every second for 300 s after adding agonists.

[2] = biological target: T2, hNav1.8 (Homo sapiens, UniProt Q9Y5Y9); assay: FLIPR membrane potential assay, hNav1.8; conditions: for Selectivity for Nav1.7, Nav subtype 1.8: membrane potential assay
T2 construct: host or cells: HEK293
Description: as §1, §2

[3] = biological target: T3, hNav1.5 (Homo sapiens, UniProt Q14524); assay: FLIPR membrane potential assay, hNav1.5; conditions: for Selectivity for Nav1.7, Nav subtype 1.5: membrane potential assay
T3 construct: host or cells: HEK293
Description: as §1, §2

[4] = biological target: T4, hNav1.7 (Homo sapiens, UniProt Q15858); assay: FLIPR membrane potential assay, hNav1.7; conditions: for Selectivity for Nav1.7, Nav subtype 1.7: membrane potential assay, reference subtype
T4 construct: host or cells: HEK293
Description: as §1, §2

[5] = biological target: T5, hNav1.2 (Homo sapiens, UniProt Q99250); assay: FLIPR membrane potential assay, hNav1.2; conditions: for Selectivity for Nav1.7, Nav subtype 1.2: membrane potential assay
T5 construct: host or cells: HEK293
Description: as §1, §2

[6] = biological target: T6, hNav1.1 (Homo sapiens, UniProt P35498); assay: FLIPR membrane potential assay, hNav1.1; conditions: for Selectivity for Nav1.7, Nav subtype 1.1: membrane potential assay
T6 construct: host or cells: HEK293
Description: as §1, §2

[7] = biological target: T7, hNav1.3 (Homo sapiens, UniProt Q9NY46); assay: FLIPR membrane potential assay, hNav1.3; conditions: for Selectivity for Nav1.7, Nav subtype 1.3: membrane potential assay
T7 construct: host or cells: HEK293
Description: as §1, §2

[8] = biological target: T8, hNav1.4 (Homo sapiens, UniProt P35499); assay: FLIPR membrane potential assay, hNav1.4; conditions: for Selectivity for Nav1.7, Nav subtype 1.4: membrane potential assay
T8 construct: host or cells: HEK293
Description: as §1, §2

T2 sequence (Q9Y5Y9 whole entry): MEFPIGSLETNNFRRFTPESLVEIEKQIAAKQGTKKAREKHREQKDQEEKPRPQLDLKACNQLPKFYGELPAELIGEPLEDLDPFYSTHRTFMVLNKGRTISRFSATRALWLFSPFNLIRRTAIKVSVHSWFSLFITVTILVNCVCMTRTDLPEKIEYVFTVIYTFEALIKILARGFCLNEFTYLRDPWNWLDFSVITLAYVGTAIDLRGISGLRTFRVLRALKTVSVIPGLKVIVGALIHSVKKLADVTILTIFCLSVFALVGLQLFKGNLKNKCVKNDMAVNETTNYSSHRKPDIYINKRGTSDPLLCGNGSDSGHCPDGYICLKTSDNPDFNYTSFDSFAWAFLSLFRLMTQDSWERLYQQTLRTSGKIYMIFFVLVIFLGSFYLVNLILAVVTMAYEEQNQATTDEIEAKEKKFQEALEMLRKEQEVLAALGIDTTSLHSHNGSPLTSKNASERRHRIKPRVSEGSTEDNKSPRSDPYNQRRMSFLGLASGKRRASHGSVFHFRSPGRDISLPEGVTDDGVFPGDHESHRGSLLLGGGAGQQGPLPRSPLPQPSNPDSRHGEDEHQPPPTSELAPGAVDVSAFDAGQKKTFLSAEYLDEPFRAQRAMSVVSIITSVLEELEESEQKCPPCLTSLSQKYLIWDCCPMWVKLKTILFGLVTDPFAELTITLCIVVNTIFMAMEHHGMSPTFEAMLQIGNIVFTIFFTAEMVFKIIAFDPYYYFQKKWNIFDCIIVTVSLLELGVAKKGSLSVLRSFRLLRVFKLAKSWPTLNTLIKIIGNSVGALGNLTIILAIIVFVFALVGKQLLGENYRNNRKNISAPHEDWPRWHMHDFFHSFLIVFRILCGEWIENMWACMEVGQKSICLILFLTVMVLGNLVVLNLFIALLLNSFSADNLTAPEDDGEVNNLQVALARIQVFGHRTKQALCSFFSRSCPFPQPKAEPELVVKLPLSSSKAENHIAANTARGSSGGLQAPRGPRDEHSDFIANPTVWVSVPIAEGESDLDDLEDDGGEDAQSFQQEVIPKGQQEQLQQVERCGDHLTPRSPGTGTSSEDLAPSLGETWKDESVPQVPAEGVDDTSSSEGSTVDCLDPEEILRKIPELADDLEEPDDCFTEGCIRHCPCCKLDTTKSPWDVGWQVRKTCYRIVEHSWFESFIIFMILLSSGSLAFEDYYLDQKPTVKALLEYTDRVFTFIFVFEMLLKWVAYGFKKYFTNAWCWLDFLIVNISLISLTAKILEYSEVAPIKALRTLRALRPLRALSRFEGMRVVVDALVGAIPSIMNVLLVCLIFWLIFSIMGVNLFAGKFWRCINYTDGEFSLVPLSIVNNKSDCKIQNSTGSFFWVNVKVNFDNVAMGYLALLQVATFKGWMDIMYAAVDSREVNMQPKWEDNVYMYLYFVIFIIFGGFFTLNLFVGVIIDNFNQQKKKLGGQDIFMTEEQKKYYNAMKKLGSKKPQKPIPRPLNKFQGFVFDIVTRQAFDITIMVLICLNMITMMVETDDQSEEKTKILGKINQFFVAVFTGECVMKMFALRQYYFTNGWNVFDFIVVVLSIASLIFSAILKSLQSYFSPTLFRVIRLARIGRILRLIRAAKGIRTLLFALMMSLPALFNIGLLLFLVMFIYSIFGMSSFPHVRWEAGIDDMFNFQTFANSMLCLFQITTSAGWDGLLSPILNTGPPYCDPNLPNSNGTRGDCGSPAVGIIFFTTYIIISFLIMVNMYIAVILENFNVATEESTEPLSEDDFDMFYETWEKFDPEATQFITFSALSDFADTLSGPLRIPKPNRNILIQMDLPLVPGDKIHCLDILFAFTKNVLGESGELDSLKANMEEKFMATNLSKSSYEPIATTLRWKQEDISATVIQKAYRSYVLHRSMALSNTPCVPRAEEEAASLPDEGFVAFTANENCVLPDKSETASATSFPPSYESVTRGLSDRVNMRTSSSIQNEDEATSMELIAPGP
T8 sequence (P35499 whole entry): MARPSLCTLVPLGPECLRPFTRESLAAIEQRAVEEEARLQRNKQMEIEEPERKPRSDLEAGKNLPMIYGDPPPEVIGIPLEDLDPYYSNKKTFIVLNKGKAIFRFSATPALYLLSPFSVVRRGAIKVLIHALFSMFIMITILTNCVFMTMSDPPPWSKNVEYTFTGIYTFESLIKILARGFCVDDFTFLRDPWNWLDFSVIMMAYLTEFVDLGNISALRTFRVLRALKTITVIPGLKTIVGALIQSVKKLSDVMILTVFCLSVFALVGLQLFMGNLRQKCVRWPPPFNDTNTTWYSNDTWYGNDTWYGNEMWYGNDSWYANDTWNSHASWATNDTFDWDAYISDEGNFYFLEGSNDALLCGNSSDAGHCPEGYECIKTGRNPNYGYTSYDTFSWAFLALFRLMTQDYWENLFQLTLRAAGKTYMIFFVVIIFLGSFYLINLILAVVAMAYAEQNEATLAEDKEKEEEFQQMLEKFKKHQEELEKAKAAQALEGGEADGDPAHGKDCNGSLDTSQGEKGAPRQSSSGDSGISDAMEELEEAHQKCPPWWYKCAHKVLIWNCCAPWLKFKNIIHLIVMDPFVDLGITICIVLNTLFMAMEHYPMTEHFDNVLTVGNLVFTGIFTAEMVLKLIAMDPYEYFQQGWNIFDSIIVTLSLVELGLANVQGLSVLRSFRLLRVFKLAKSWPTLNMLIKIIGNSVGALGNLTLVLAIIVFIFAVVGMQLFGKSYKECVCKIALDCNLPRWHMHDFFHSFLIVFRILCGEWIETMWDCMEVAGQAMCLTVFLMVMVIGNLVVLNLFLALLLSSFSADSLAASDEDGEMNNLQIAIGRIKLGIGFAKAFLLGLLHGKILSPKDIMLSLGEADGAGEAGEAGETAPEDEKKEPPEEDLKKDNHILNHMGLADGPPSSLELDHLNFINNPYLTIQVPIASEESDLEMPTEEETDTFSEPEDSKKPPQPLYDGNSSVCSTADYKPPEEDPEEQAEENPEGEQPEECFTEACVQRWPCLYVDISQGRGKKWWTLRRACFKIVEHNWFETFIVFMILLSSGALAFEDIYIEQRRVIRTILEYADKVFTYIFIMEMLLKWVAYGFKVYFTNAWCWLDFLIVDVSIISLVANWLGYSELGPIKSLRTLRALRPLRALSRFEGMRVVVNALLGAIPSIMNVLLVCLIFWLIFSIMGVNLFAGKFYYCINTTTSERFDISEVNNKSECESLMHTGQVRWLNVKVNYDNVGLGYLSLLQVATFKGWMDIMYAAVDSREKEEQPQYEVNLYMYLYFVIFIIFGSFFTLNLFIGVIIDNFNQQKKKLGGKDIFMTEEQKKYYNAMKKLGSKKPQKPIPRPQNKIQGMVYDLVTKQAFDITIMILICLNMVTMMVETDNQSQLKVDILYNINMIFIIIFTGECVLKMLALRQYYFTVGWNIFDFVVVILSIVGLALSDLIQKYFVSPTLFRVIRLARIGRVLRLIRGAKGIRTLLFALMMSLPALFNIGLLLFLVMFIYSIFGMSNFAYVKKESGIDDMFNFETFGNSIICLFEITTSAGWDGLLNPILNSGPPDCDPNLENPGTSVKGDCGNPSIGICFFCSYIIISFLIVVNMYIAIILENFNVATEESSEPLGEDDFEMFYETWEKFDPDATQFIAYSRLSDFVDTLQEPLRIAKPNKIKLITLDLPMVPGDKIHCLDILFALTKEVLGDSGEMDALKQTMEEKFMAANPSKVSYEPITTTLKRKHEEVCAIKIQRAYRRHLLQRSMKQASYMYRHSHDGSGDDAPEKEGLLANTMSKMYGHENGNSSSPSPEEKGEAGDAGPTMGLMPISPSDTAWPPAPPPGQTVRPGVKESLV

Row | Compound | pIC50 [1] | Selectivity for Nav1.7, Nav subtype 1.6 [1] | pIC50 [2] | Selectivity for Nav1.7, Nav subtype 1.8 [2] | pIC50 [3] | Selectivity for Nav1.7, Nav subtype 1.5 [3] | pIC50 [4] | Selectivity for Nav1.7, Nav subtype 1.7 [4] | pIC50 [5] | Selectivity for Nav1.7, Nav subtype 1.2 [5] | pIC50 [6] | Selectivity for Nav1.7, Nav subtype 1.1 [6] | pIC50 [7] | Selectivity for Nav1.7, Nav subtype 1.3 [7] | pIC50 [8] | Selectivity for Nav1.7, Nav subtype 1.4 [8]
1 | CSCC[C@@H]1NC(=O)[C@H](Cc2ccc(O)cc2)NC(=O)[C@H](CCCNC(=N)N)NC(=O)[C@@H](NC(=O)[C@H](CC(=O)O)NC(=O)[C@@H](N)CO)CSSC[C@@H]2NC(=O)[C@@H]3CSSC[C@@H](C(=O)N[C@@H](C)C(=O)N[C@@H](Cc4c[nH]c5ccccc45)C(=O)N[C@@H](CC(=O)O)C(=O)N[C@@H](Cc4ccccc4)C(=O)N[C@H](C(=O)N[C@@H](Cc4ccccc4)C(=O)N[C@H](C(=O)O)[C@@H](C)O)[C@@H](C)O)NC(=O)[C@H](Cc4ccc(O)cc4)NC(=O)[C@H](CCCCN)NC(=O)[C@H](CCSC)NC(=O)[C@H](CCCCN)NC(=O)[C@H](CCCNC(=N)N)NC(=O)[C@H](CCCCN)NC(=O)[C@H](CSSC[C@H](NC(=O)[C@H](CC(=O)O)NC(=O)CNC(=O)[C@H](Cc4ccccc4)NC1=O)C(=O)N[C@@H](CCC(=O)O)C(=O)N[C@@H](CCCCN)C(=O)N[C@@H](CC(=O)O)C(=O)N[C@@H](CCC(=O)O)C(=O)N[C@@H](CC(=O)O)C(=O)N3)NC(=O)CNC(=O)[C@H](CC(C)C)NC(=O)[C@H](Cc1c[nH]cn1)NC(=O)[C@H](CCCCN)NC2=O [S0-Pnc1a] (H-SDCRYMFGDCEKDEDCCKHLGCKRKMKYCAWDFTFT-OH; disulfide 3-17, 10-22, 16-29) | 4.72 | 68 | < 4.52 | >107 | < 4.52 | >107 | 6.55 | 1 | 5.52 | 10 | 5.05 | 32 | 5.22 | 22 | 4.96 | 40
2 | CSCC[C@@H]1NC(=O)[C@H](Cc2ccc(O)cc2)NC(=O)[C@H](CCCNC(=N)N)NC(=O)[C@@H](NC(=O)[C@@H](N)CCCCN)CSSC[C@@H]2NC(=O)[C@@H]3CSSC[C@@H](C(=O)N[C@@H](C)C(=O)N[C@@H](Cc4c[nH]c5ccccc45)C(=O)N[C@@H](CC(=O)O)C(=O)N[C@@H](Cc4ccccc4)C(=O)N[C@H](C(=O)N[C@@H](Cc4ccccc4)C(=O)N[C@H](C(=O)O)[C@@H](C)O)[C@@H](C)O)NC(=O)[C@H](Cc4ccc(O)cc4)NC(=O)[C@H](CCCCN)NC(=O)[C@H](CCSC)NC(=O)[C@H](CCCCN)NC(=O)[C@H](CCCNC(=N)N)NC(=O)[C@H](CCCCN)NC(=O)[C@H](CSSC[C@H](NC(=O)[C@H](CC(=O)O)NC(=O)CNC(=O)[C@H](Cc4ccccc4)NC1=O)C(=O)N[C@@H](CCC(=O)O)C(=O)N[C@@H](CCCCN)C(=O)N[C@@H](CC(=O)O)C(=O)N[C@@H](CCC(=O)O)C(=O)N[C@@H](CC(=O)O)C(=O)N3)NC(=O)CNC(=O)[C@H](CC(C)C)NC(=O)[C@H](Cc1c[nH]cn1)NC(=O)[C@H](CCCCN)NC2=O [[D1K]Pnc1a] (H-KCRYMFGDCEKDEDCCKHLGCKRKMKYCAWDFTFT-OH; disulfide 2-16, 9-21, 15-28) | < 4.52 | >900 | < 4.52 | >900 | < 4.52 | >900 | 7.51 | 1 | 6.58 | 8 | 6.12 | 24 | 5.40 | 134 | 5.52 | 86
3 | CSCC[C@@H]1NC(=O)[C@H](Cc2ccc(O)cc2)NC(=O)[C@H](CCCNC(=N)N)NC(=O)[C@@H](NC(=O)[C@@H](N)CC(=O)O)CSSC[C@@H]2NC(=O)[C@@H]3CSSC[C@@H](C(=O)N[C@@H](C)C(=O)N[C@@H](Cc4c[nH]c5ccccc45)C(=O)N[C@@H](CC(=O)O)C(=O)N[C@@H](Cc4ccccc4)C(=O)N[C@H](C(=O)N[C@@H](Cc4ccccc4)C(=O)N[C@H](C(=O)O)[C@@H](C)O)[C@@H](C)O)NC(=O)[C@H](Cc4ccc(O)cc4)NC(=O)[C@H](CCCCN)NC(=O)[C@H](CCSC)NC(=O)[C@H](CCCCN)NC(=O)[C@H](CCCNC(=N)N)NC(=O)[C@H](CCCCN)NC(=O)[C@H](CSSC[C@H](NC(=O)[C@H](CCCCN)NC(=O)CNC(=O)[C@H](Cc4ccccc4)NC1=O)C(=O)N[C@@H](CCC(=O)O)C(=O)N[C@@H](CCCCN)C(=O)N[C@@H](CC(=O)O)C(=O)N[C@@H](CCC(=O)O)C(=O)N[C@@H](CC(=O)O)C(=O)N3)NC(=O)CNC(=O)[C@H](CC(C)C)NC(=O)[C@H](Cc1c[nH]cn1)NC(=O)[C@H](CCCCN)NC2=O [[D8K]Pnc1a] (H-DCRYMFGKCEKDEDCCKHLGCKRKMKYCAWDFTFT-OH; disulfide 2-16, 9-21, 15-28) | < 4.52 | >2000 | < 4.52 | >2000 | < 4.52 | >2000 | 7.89 | 1 | 7.40 | 3 | 6.62 | 19 | 5.70 | 159 | 6.18 | 52
4 | CSCC[C@@H]1NC(=O)[C@H](Cc2ccc(O)cc2)NC(=O)[C@H](CCCNC(=N)N)NC(=O)[C@@H](NC(=O)[C@@H](N)CC(=O)O)CSSC[C@@H]2NC(=O)[C@@H]3CSSC[C@@H](C(=O)N[C@@H](C)C(=O)N[C@@H](Cc4c[nH]c5ccccc45)C(=O)N[C@@H](CC(=O)O)C(=O)N[C@@H](Cc4ccccc4)C(=O)N[C@H](C(=O)N[C@@H](Cc4ccccc4)C(=O)N[C@H](C(=O)O)[C@@H](C)O)[C@@H](C)O)NC(=O)[C@H](Cc4ccc(O)cc4)NC(=O)[C@H](CCCCN)NC(=O)[C@H](CCSC)NC(=O)[C@H](CCCCN)NC(=O)[C@H](CCCNC(=N)N)NC(=O)[C@H](CCCCN)NC(=O)[C@H](CSSC[C@H](NC(=O)[C@H](CC(=O)O)NC(=O)CNC(=O)[C@H](Cc4ccccc4)NC1=O)C(=O)N[C@@H](CCCCN)C(=O)N[C@@H](CCCCN)C(=O)N[C@@H](CC(=O)O)C(=O)N[C@@H](CCC(=O)O)C(=O)N[C@@H](CC(=O)O)C(=O)N3)NC(=O)CNC(=O)[C@H](CC(C)C)NC(=O)[C@H](Cc1c[nH]cn1)NC(=O)[C@H](CCCCN)NC2=O [[E10K]Pnc1a] (H-DCRYMFGDCKKDEDCCKHLGCKRKMKYCAWDFTFT-OH; disulfide 2-16, 9-21, 15-28) | 6.09 | 20 | < 4.52 | >700 | 4.89 | 326 | 7.39 | 1 | 6.76 | 4 | 6.42 | 9 | 5.30 | 128 | 5.70 | 49
5 | CSCC[C@@H]1NC(=O)[C@H](Cc2ccc(O)cc2)NC(=O)[C@H](CCCNC(=N)N)NC(=O)[C@@H](NC(=O)[C@@H](N)CC(=O)O)CSSC[C@@H]2NC(=O)[C@@H]3CSSC[C@@H](C(=O)N[C@@H](C)C(=O)N[C@@H](C)C(=O)N[C@@H](CC(=O)O)C(=O)N[C@@H](Cc4ccccc4)C(=O)N[C@H](C(=O)N[C@@H](Cc4ccccc4)C(=O)N[C@H](C(=O)O)[C@@H](C)O)[C@@H](C)O)NC(=O)[C@H](Cc4ccc(O)cc4)NC(=O)[C@H](CCCCN)NC(=O)[C@H](CCSC)NC(=O)[C@H](CCCCN)NC(=O)[C@H](CCCNC(=N)N)NC(=O)[C@H](CCCCN)NC(=O)[C@H](CSSC[C@H](NC(=O)[C@H](CC(=O)O)NC(=O)CNC(=O)[C@H](Cc4ccccc4)NC1=O)C(=O)N[C@@H](CCC(=O)O)C(=O)N[C@@H](CCCCN)C(=O)N[C@@H](CC(=O)O)C(=O)N[C@@H](CCC(=O)O)C(=O)N[C@@H](CC(=O)O)C(=O)N3)NC(=O)CNC(=O)[C@H](CC(C)C)NC(=O)[C@H](Cc1c[nH]cn1)NC(=O)[C@H](CCCCN)NC2=O [[W30A]Pnc1a] (H-DCRYMFGDCEKDEDCCKHLGCKRKMKYCAADFTFT-OH; disulfide 2-16, 9-21, 15-28) | < 4.52 | 4 | < 4.52 | 4 | 5.22 | 0.9 | 5.15 | 1 | 4.62 | 3 | 4.82 | 2 | 4.96 | 2 | 4.92 | 2
